Measurements reported in the supplement of paper PMC10307832.

Experiments:
Experiment in all cases: relative viability (nuclei count vs DMSO), 5 days (fraction); higher = more cells survive
BI-2536 + Lapatinib = compound: CC[C@@H]1C(=O)N(C)c2cnc(Nc3ccc(C(=O)NC4CCN(C)CC4)cc3OC)nc2N1C1CCCC1 [BI-2536] + CS(=O)(=O)CCNCc1ccc(-c2ccc3ncnc(Nc4ccc(OCc5cccc(F)c5)c(Cl)c4)c3c2)o1 [Lapatinib] (partner 2 µM)
Method in brief: (§1)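 Lung cancer cell lines, seeded in 1536-well plates, were treated the following day by pin tool with a single drug or with five library-drug doses (not always all listed) in √10 steps on top of a fixed anchor-drug dose. Cells were fixed and nuclei stained in one step after 5 days, and nuclei were counted. Relative viability is the nuclei count for treated wells divided by that for vehicle wells, reported as medians of duplicate plates.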

BI-2536 + Palbociclib = compound: CC[C@@H]1C(=O)N(C)c2cnc(Nc3ccc(C(=O)NC4CCN(C)CC4)cc3OC)nc2N1C1CCCC1 [BI-2536] + CC(=O)c1c(C)c2cnc(Nc3ccc(N4CCNCC4)cn3)nc2n(C2CCCC2)c1=O [Palbociclib] (partner 0.5 µM)
Method in brief: as §1

BI-2536 + Olaparib = compound: CC[C@@H]1C(=O)N(C)c2cnc(Nc3ccc(C(=O)NC4CCN(C)CC4)cc3OC)nc2N1C1CCCC1 [BI-2536] + O=C(c1cc(Cc2n[nH]c(=O)c3ccccc23)ccc1F)N1CCN(C(=O)C2CC2)CC1 [Olaparib] (partner 8 µM)
Method in brief: as §1

[1] = compound: CC1CC(=O)N(C2=CN=C(N=C2N1C3CCCC3)NC4=C(C=C(C=C4)C(=O)NC5CCN(CC5)C)OC)C [NPK76-II-72-1] + Cc1cc(Nc2cc(N3CCN(C)CC3)nc(Sc3ccc(NC(=O)C4CC4)cc3)n2)n[nH]1 [Tozasertib] (partner 0.1 µM)
Method in brief: as §1

## UMC-11
BI-2536 + Lapatinib; first compound 0.01 µM
  relative viability: 1.02
BI-2536 + Lapatinib; first compound 0.03162 µM
  relative viability: 0.765
BI-2536 + Lapatinib; first compound 0.1 µM
  relative viability: 0.132
BI-2536 + Lapatinib; first compound 0.3162 µM
  relative viability: 0.17
BI-2536 + Lapatinib; first compound 1 µM
  relative viability: 0.18
BI-2536 + Palbociclib; first compound 0.01 µM
  relative viability: 0.295
BI-2536 + Palbociclib; first compound 0.03162 µM
  relative viability: 0.295
BI-2536 + Palbociclib; first compound 0.1 µM
  relative viability: 0.228
BI-2536 + Palbociclib; first compound 0.3162 µM
  relative viability: 0.223
BI-2536 + Palbociclib; first compound 1 µM
  relative viability: 0.23
BI-2536 + Olaparib; first compound 0.01 µM
  relative viability: 0.389
BI-2536 + Olaparib; first compound 0.03162 µM
  relative viability: 0.414
BI-2536 + Olaparib; first compound 0.1 µM
  relative viability: 0.251
BI-2536 + Olaparib; first compound 0.3162 µM
  relative viability: 0.218
BI-2536 + Olaparib; first compound 1 µM
  relative viability: 0.209
[1]; first compound 0.01 µM
  relative viability: 0.197
[1]; first compound 0.03162 µM
  relative viability: 0.186
[1]; first compound 0.1 µM
  relative viability: 0.197
[1]; first compound 1 µM
  relative viability: 0.205
